PubChem BioAssay (NCI)
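Values below derive from 48-hour exposures of cells grown in 96-well plates, with endpoints linearly interpolated between the two concentrations bracketing the appropriate inhibition level. Abbreviation: GI50, concentration required for 50% inhibition of growth. At the TGI there is no net growth.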

Columns and labels:
Assay in all cases: NCI anticancer screen, dose series, 48 h
HCC-2998 colon = system: HCC-2998 colon
SK-OV-3 ovarian = system: SK-OV-3 ovarian
NCI-H522 lung = system: NCI-H522 lung
NCI-H460 lung = system: NCI-H460 lung
DU-145 prostate = system: DU-145 prostate
A549 NSCLC = system: A549 NSCLC
SF-539 CNS = system: SF-539 CNS
UACC-62 melanoma = system: UACC-62 melanoma
OVCAR-8 ovarian = system: OVCAR-8 ovarian
SF-295 CNS = system: SF-295 CNS

SMILES | GI50 (HCC-2998 colon) [µM] | TGI (HCC-2998 colon) [µM] | GI50 (SK-OV-3 ovarian) [µM] | TGI (SK-OV-3 ovarian) [µM] | GI50 (NCI-H522 lung) [µM] | TGI (NCI-H522 lung) [µM] | GI50 (NCI-H460 lung) [µM] | TGI (NCI-H460 lung) [µM] | GI50 (DU-145 prostate) [µM] | TGI (DU-145 prostate) [µM] | GI50 (A549 NSCLC) [µM] | TGI (A549 NSCLC) [µM] | GI50 (SF-539 CNS) [µM] | TGI (SF-539 CNS) [µM] | GI50 (UACC-62 melanoma) [µM] | TGI (UACC-62 melanoma) [µM] | GI50 (OVCAR-8 ovarian) [µM] | TGI (OVCAR-8 ovarian) [µM] | GI50 (SF-295 CNS) [µM] | TGI (SF-295 CNS) [µM]
CCCc1cc2c(=O)c(C(=O)OC)c[nH]c2cc1N(CC)CC | 76.3 | > 100 | 36.5 | > 100 | 38.5 | > 100 | 31.6 | > 100 | 20.2 | 49.6 | 38.3 | > 100 | 34 | > 100 | > 100 | > 100 | 29.4 | 95.7 | 8.16 | 24.8
Cn1c(/C=C(\C#N)c2ccccc2)nc2c(N3CCOCC3)nc(Cl)nc21 | 1.82 | 3.33 | 4.54 | 16.2 | 0.74 | 2.47 | 1.77 | 3.72 | 1.28 | 2.56 | 1.53 | 4.03 | 1.42 | 2.74 | 1.19 | 2.52 | 1.04 | 3.39 | 1.98 | 4.32
C#CCC(Cc1cnc2nc(N)nc(N)c2n1)c1ccc(C(=O)N[C@@H](CCC(=O)O)C(=O)O)cc1 (some centres undefined) | 0.0103 | > 100 | < 0.01 | > 100 | < 0.01 | > 100 | < 0.01 | > 100 | < 0.01 | > 100 | < 0.01 | > 100 | < 0.01 | > 100 | < 0.01 | > 100 | < 0.01 | > 100 | < 0.01 | > 100
COc1cc(C)c(Cl)cc1C1=NN(c2ccc(S(N)(=O)=O)cc2)C(/C=C/c2ccccc2)C1 (centres undefined) | 2.57 | 8.49 | 3.74 | 16.2 | 2.3 | 5.34 | 2.43 | 6.3 | 3.91 | 16.7 | 3.31 | 19.3 | 4.26 | 17 | 3.77 | 19.4 | 3.33 | 19.1 | 3.17 | 13.6
Cc1cc(S(N)(=O)=O)c(S/C(CC(C)C)=N\Nc2ccc([N+](=O)[O-])cc2)cc1Cl | 2.46 | 6.27 | 13.7 | 28.2 | 18.8 | 72.2 | 4.09 | 17.8 | 14.4 | 28 | 9.46 | 27.2 | 16.2 | 29.7 | 3.13 | 8.89 | 16.9 | 52.8 | 2.31 | 5.7
COC1CC2CCC(C)C(O)(O2)C(=O)C(=O)N2CCCCC2C(=O)OC(C(C)CC2CCC(O)C(OC)C2)CC(=O)C(C)C=C(C)C(O)C(OC)C(=O)C(C)CC(C)/C=C/C=C/C=C1C (centres undefined) | 0.263 | 11.4 | < 0.005 | 10.7 | 1.99 | 11.3 | < 0.005 | 11.5 | 3.52 | 10.9 | 0.0784 | 41.6 | < 0.005 | 11 | 0.0265 | 11.6 | < 0.005 | 24.6 | < 0.005 | 7.76
C=CC(=O)N1CCN(c2nc(=O)n(-c3c(C)ccnc3C(C)C)c3nc(-c4c(O)cccc4F)c(F)cc23)[C@@H](C)C1 | 19.1 | 35.9 | > 77.8 | > 100 | 29.8 | > 100 | 43.4 | > 100 | 30.9 | 98.3 | > 46.5 | > 77.2 | 23.3 | 64.2 | 28.4 | > 73.6 | 30.9 | > 100 | 44.4 | > 100
O=C(CNc1ccc2c(c1)C(=O)c1ccccc1C2=O)Nc1ccc2c(c1)C(=O)c1ccccc1C2=O | 1.58 | 2.99 | 1.82 | 6.99 | 0.153 | 0.318 | 1.28 | 2.88 | 1.53 | 2.87 | 1.68 | 3.58 | 1.78 | 3.46 | 0.631 | 1.95 | 0.423 | 2.03 | 1.46 | 2.89
COC(=O)C1=C(C(=O)ON)C2C=CC1(C(Cc1ccccc1)Nc1ccccc1)O2 (centres undefined) | 16.9 | 32.3 | 14.8 | 28 | 1.45 | 2.98 | 18 | 40.7 | 2.01 | 4.18 | 15.2 | 29.4 | 11.5 | 23.7 | 2.24 | 6.66 | 2.75 | 8.71 | 13.8 | 26.7
CC(C)(O)CS(=O)(=O)Nc1ccc2c(c1)CCN(C(=O)COc1cccnc1)C2 | > 26.5 | > 100 | > 100 | > 100 |  | > 100 | 11.5 | > 100 | 0.618 | > 100 | > 100 | > 100 | < 0.0224 | > 100 | > 100 | > 100 | 0.0177 | > 100 | > 61.6 | > 100
C=C(CN1C(=O)[C@H]2CCCN2C(=O)c2ccccc21)c1ccc(C(=O)O)cc1 | > 100 | > 100 | > 100 | > 100 | > 100 | > 100 | > 100 | > 100 | > 100 | > 100 | > 100 | > 100 | > 100 | > 100 | > 100 | > 100 | > 100 | > 100 | > 100 | > 100
O=c1ccn(C2OC(CO/N=C/c3ccc(O)c(O)c3O)C(O)C2O)c(=O)[nH]1 (centres undefined) | > 100 | > 100 | 27.2 | 89 | 50.6 | > 100 | > 100 | > 100 | 17.1 | 33.2 | 54.3 | > 100 | 52.1 | > 100 | 76.4 | > 100 | 22.3 | 56 | 10.5 | 24.1
O=C1c2cc3c(cc2-c2c1c1ccc(Cl)cc1c(=O)n2CCCNCCO)OCO3 | 1.15 | 2.46 | 0.212 | 1.74 | 0.0372 | 1.58 | 0.0342 | 1.34 | 0.059 | 1.68 | 0.115 | 2.38 | 0.242 | 1.35 | 0.0427 | 1.6 | 0.476 | 2.59 | 0.0378 | 1.38
Cc1ccc(-n2c3c(c4c(CN(C)C)c(O)ccc42)CCc2ccccc2C3=O)cc1 | 12.2 | 24.9 | > 100 | > 100 | 14.9 | 32.7 | 18.3 | 41.9 | 37.3 | > 100 | 16.7 | 33.8 | 19.3 | 36 | 17 | 30.9 | 16.9 | 41.8 | 18.3 | 35.9
O=C(Nc1cc(Cl)cc(Cl)c1)c1ccc(NC2=C(Cl)C(=O)N(Cc3ccc(Cl)cc3Cl)C2=O)cc1 | 15 | 36.9 | 55.3 | > 100 | 15.7 | 34.3 | 16.6 | > 100 | 20.1 | 50.7 | > 100 | > 100 | 6.94 | 25.3 | 18.3 | 38.2 | 21.6 | 87.2 | 43.2 | > 100
COc1ccc(/C=C/C(=O)c2ccc(SC)cc2)cc1OC | 3.27 | 12.1 | 34.1 | > 100 | 5 | 27.4 | 70.6 | > 100 | 13.4 | 30.9 | 15.8 | 42.7 | 12 | 27.3 | 12.7 | 27.1 | 16.5 | 44 | 6.47 | 40.2
